Reference: ChEMBL document CHEMBL5370603, “N-(2-Aminophenyl)-benzamide Inhibitors of Class I HDAC Enzymes with Antiproliferative and Antifibrotic Activity” (J Med Chem, 2023)
Active and inactive are the calls of the source. The rule behind the calls is not given here.

Experiments:
Mus musculus [1] = experiment: Anti-fibrotic activity against BLM-induced pulmonary fibrosis C57BL/6 mouse model assessed as reduction in Col1a1 gene expression in lungs at 30 mg/kg, ip bid for 15 days starting from 1 day before BLM challenge by qRT-PCR analysis; format: functional, organism-based; settings: time 15.0 day
Mus musculus [2] = experiment: Anti-fibrotic activity against BLM-induced pulmonary fibrosis C57BL/6 mouse model assessed as reduction in soluble collagen protein level in BALF at 30 mg/kg, ip bid for 15 days starting from 1 day before BLM challenge by Direct Red assay; format: functional, organism-based; settings: time 15.0 day
[3] = Toxicity against human primary lung fibroblasts assessed as effect on cell viability upto 20 uM incubated for 72 hrs by MTT assay; format: cell-based; settings: fibroblast
Fibroblast = experiment: Anti-fibrotic activity in human primary lung fibroblast assessed as inhibition of TGFbeta1-induced COL1A1 mRNA expression at 5 to 10 uM pretreated for 1 hr followed by TGFbeta1 stimulation and measured after 24 hrs by qRT-PCR analysis; format: functional, cell-based; settings: dose 5-10 µM, time 25.0 hrs
Histone deacetylase 1 = Histone deacetylase 1 (Homo sapiens, UniProt Q13547); experiment: Inhibition of human recombinant HDAC1 using Ac-Leu-Gly-Lys(Ac)-AMC as substrate preincubated with enzyme for 30 mins followed by substrate addition and measured after 90 mins by fluorescence based analysis
Histone deacetylase 2 = Histone deacetylase 2 (Homo sapiens, UniProt Q92769); experiment: Inhibition of human recombinant HDAC2 using Ac-Leu-Gly-Lys(Ac)-AMC as substrate preincubated with enzyme for 30 mins followed by substrate addition and measured after 90 mins by fluorescence based analysis
A549 = experiment: Antiproliferative activity against human A549 cells assessed as inhibition of cell growth incubated for 72 hrs by MTT assay; format: functional, cell-based; settings: A549, 72 h
Caco-2 = experiment: Antiproliferative activity against human Caco-2 cells assessed as inhibition of cell growth incubated for 72 hrs by MTT assay; format: functional, cell-based; settings: Caco-2, 72 h
Histone deacetylase 3 = Histone deacetylase 3 (Homo sapiens, UniProt O15379); experiment: Inhibition of human recombinant HDAC3 using Ac-Leu-Gly-Lys(Ac)-AMC as substrate preincubated with enzyme for 30 mins followed by substrate addition and measured after 90 mins by fluorescence based analysis
Mus musculus [4] = experiment: Anti-fibrotic activity against BLM-induced pulmonary fibrosis C57BL/6 mouse model assessed as reduction in fibrotic masses in lungs at 30 mg/kg, ip bid for 15 days starting from 1 day before BLM challenge by Hematoxylin-Eosin staining based analysis; format: functional, organism-based; settings: time 15.0 day
Histone deacetylase 8 = target: T1, Histone deacetylase 8 (Homo sapiens, UniProt Q9BY41); experiment: Inhibition of C-terminal His-tagged human recombinant full length HDAC8 (1 to 377 residues) expressed in Sf9 cells using Ac-Leu-Gly-Lys(trifluoroAc)-AMC as substrate preincubated with enzyme for 30 mins followed by substrate addition and measured after 90 mins by fluorescence based analysis
T1 sequence (Q9BY41 whole entry): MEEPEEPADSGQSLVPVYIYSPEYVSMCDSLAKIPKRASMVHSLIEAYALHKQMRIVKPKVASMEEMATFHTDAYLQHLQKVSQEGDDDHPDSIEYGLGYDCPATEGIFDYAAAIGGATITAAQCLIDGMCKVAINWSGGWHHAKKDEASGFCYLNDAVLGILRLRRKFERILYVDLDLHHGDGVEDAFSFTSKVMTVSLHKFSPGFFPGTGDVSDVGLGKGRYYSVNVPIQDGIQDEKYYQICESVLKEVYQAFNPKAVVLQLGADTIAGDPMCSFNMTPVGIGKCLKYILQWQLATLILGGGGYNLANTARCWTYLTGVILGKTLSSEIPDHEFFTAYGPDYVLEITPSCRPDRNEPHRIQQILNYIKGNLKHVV

Histone deacetylase 4 = Histone deacetylase 4 (Homo sapiens, UniProt P56524); experiment: Inhibition of N-terminal GST-tagged/C-terminal His tagged human recombinant HDAC4 (627 to 1084 residues) expressed in baculovirus-infected Sf9 cells using Ac-Leu-Gly-Lys(trifluoroAc)-AMC as substrate preincubated with enzyme for 15 mins followed by substrate addition and measured after 60 mins by fluorescence based analysis
[5] = target: T2, Protein deacetylase HDAC6 (Homo sapiens, UniProt Q9UBN7); experiment: Inhibition of C-terminal FLAG-tagged human recombinant full length HDAC6 expressed in baculovirus expression system using Boc-Lys(Ac)-AMC as substrate preincubated with enzyme for 15 mins followed by substrate addition and measured after 60 mins by fluorescence based analysis
T2 sequence (Q9UBN7 whole entry): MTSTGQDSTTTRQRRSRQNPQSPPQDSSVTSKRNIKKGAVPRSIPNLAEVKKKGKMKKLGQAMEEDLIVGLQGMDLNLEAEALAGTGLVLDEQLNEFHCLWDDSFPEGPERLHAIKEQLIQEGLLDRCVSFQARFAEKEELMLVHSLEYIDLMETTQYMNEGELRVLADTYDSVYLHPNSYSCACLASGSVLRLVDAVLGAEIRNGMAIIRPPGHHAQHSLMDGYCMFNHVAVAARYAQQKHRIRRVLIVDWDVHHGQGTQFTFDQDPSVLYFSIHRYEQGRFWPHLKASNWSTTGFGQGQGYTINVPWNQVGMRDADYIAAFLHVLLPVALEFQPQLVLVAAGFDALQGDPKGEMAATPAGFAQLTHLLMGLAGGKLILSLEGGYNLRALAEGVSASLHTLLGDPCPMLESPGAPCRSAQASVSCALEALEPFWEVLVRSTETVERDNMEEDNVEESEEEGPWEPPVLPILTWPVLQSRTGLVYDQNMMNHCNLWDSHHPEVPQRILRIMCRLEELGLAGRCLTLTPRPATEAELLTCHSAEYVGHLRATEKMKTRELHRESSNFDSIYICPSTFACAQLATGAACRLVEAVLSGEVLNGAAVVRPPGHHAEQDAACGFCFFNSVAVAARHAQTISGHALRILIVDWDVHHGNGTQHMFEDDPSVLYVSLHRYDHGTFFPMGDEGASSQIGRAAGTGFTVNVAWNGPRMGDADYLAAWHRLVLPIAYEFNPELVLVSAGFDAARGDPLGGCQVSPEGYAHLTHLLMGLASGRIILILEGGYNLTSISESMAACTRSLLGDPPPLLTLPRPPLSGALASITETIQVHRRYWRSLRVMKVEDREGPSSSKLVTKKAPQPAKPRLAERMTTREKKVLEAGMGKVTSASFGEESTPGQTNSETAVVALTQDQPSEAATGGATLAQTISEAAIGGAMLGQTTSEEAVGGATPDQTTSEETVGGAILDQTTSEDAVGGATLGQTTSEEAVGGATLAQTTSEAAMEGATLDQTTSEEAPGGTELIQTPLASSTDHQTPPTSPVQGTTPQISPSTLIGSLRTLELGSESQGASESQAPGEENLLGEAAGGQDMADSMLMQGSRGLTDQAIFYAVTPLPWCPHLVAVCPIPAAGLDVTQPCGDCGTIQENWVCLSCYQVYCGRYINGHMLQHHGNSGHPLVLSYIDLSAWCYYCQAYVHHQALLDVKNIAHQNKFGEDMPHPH

Mus musculus [6] = experiment: Anti-fibrotic activity against BLM-induced pulmonary fibrosis C57BL/6 mouse model assessed as reduction in collagen deposition in lungs at 30 mg/kg, ip bid for 15 days starting from 1 day before BLM challenge by Sirius Red staining based analysis; format: functional, organism-based; settings: time 15.0 day
Mus musculus [7] = experiment: Anti-fibrotic activity against BLM-induced pulmonary fibrosis C57BL/6 mouse model assessed as reduction in pulmonary inflammation by measuring decrease in cell number infiltration in BALF at 30 mg/kg, ip bid for 15 days starting from 1 day before BLM challenge by hematocytometer analysis; format: functional, organism-based; settings: time 15.0 day
SF-268 = experiment: Antiproliferative activity against human SF-268 cells assessed as inhibition of cell growth incubated for 72 hrs by MTT assay; format: functional, cell-based; settings: SF-268, 72 h
Mus musculus [8] = experiment: Anti-fibrotic activity against BLM-induced pulmonary fibrosis C57BL/6 mouse model assessed as reduction in pulmonary edema by measuring decrease in total protein concentration in BALF at 30 mg/kg, ip bid for 15 days starting from 1 day before BLM challenge by Bradford assay; format: functional, organism-based; settings: time 15.0 day
[9] = target: T3, Class 1 histone deacetylase (Homo sapiens) (UniProt Q13547+O15379+Q92769+Q9BY41); experiment: Inhibition of class I HDAC in human A549 cells assessed as downregulation of EGFR protein expression at 5 uM incubated for 48 hrs by western blot analysis; format: cell-based
[10] = target: T4, Protein deacetylase HDAC6 (Homo sapiens) (UniProt Q9UBN7); experiment: Inhibition of HDAC6 in human A549 cells assessed as increase in acetylated alpha-tubulin level at 5 uM incubated for 48 hrs by immunoblot analysis; format: cell-based
T4 sequence (whole entry): T2 sequence (Q9UBN7 whole entry)

[11] = target: T3, Class 1 histone deacetylase (Homo sapiens); experiment: Inhibition of class I HDAC in human A549 cells assessed as increase in histone H3 acetylation at 5 uM incubated for 48 hrs by immunoblot analysis; format: cell-based

Histone deacetylase 3, sequence (O15379 whole entry): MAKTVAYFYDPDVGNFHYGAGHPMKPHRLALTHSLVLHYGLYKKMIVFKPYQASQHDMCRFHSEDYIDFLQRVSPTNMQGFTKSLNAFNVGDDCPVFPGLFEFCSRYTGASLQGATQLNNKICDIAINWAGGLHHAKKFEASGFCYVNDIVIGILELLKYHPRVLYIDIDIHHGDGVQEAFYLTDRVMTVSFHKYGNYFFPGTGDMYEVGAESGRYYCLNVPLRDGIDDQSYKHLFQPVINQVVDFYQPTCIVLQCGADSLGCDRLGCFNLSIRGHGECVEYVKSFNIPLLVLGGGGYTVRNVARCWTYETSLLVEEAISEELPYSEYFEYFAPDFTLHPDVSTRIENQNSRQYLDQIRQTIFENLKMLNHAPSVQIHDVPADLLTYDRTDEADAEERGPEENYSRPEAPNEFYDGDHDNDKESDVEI
Histone deacetylase 4, sequence (P56524 whole entry, the tested form may be a part): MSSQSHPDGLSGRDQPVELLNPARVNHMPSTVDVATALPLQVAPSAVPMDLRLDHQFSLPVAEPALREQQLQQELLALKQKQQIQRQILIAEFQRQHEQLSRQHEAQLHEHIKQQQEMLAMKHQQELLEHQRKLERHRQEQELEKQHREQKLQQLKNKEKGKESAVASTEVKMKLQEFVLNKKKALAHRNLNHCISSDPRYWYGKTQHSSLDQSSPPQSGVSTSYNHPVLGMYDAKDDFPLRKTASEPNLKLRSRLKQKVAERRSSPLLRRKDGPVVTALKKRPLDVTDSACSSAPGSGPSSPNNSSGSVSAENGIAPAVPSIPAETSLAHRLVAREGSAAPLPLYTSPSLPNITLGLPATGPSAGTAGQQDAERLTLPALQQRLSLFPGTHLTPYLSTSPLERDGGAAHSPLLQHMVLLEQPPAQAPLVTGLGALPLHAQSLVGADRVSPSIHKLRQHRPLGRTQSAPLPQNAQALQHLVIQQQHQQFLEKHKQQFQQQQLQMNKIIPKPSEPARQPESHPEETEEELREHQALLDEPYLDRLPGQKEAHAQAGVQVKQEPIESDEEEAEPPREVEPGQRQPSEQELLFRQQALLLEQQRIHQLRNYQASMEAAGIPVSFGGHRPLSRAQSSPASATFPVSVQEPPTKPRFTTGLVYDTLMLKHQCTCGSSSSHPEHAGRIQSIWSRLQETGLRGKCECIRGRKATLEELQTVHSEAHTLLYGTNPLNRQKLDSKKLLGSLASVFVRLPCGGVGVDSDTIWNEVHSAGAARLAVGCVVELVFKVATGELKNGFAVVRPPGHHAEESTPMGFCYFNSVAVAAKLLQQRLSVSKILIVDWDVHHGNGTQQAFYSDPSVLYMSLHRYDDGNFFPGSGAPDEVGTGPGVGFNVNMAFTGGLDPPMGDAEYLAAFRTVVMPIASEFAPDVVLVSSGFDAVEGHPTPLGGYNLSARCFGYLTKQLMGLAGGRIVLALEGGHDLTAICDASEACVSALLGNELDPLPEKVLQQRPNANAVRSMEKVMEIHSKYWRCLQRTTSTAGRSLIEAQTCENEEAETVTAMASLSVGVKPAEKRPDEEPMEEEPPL
Histone deacetylase 1, sequence (Q13547 whole entry): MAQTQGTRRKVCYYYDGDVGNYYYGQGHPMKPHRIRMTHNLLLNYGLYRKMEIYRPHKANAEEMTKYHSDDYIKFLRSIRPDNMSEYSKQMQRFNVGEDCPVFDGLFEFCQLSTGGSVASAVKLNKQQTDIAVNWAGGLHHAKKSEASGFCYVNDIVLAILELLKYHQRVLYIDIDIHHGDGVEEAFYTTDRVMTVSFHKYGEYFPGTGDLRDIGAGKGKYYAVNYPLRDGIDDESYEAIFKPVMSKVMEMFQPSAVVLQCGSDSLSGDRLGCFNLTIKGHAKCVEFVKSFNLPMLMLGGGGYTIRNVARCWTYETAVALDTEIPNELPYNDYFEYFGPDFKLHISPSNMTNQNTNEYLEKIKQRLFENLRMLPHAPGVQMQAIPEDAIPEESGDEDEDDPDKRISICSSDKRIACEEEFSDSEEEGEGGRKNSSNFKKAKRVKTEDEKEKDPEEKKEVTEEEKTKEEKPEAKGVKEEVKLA
Histone deacetylase 2, sequence (Q92769 whole entry): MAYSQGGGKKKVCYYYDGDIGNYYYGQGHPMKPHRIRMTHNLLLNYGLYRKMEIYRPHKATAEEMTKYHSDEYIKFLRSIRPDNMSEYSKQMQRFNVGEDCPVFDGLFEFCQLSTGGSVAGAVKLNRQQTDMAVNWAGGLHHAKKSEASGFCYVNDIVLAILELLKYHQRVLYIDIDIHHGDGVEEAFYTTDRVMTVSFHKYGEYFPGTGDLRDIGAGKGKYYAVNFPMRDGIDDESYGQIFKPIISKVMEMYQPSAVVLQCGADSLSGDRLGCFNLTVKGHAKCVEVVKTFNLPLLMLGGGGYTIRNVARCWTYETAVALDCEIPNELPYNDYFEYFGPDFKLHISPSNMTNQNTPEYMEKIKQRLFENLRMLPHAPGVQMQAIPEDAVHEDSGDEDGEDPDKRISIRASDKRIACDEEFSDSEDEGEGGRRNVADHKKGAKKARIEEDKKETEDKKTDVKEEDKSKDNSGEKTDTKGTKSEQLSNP

Row | SMILES | Activity (Mus musculus [1]) | Activity (Mus musculus [2]) | Activity [3] | Activity (Fibroblast) | IC50 (Histone deacetylase 1) [µM] | IC50 (Histone deacetylase 2) [µM] | IC50 (A549) [µM] | IC50 (Caco-2) [µM] | IC50 (Histone deacetylase 3) [µM] | Activity (Mus musculus [4]) | IC50 (Histone deacetylase 8) [µM] | IC50 (Histone deacetylase 4) [µM] | IC50 [5] [µM] | Activity (Mus musculus [6]) | Activity (Mus musculus [7]) | IC50 (SF-268) [µM] | Activity (Mus musculus [8]) | inhibition [9] | inhibition [10] | inhibition [11]
1 | Nc1ccccc1NC(=O)c1ccc(COc2ccc(CNC(=O)[C@@H]3CCC(=O)N3Cc3ccccc3)cc2)cc1 | Active | Active | Non-Toxic | Active | 0.1 | 0.116 | 6.8 | 1.9 | 0.361 | Active | > 10 | > 100 | > 100 | Active | Active | 4.8 | Active | – | – | –
2 | Cl.Cl.Nc1ccccc1NC(=O)c1ccc(COc2ccc(CNC(=O)[C@H]3CCCN3)cc2)cc1 | Active | Active | Non-Toxic | Active | 0.259 | – | 6 | – | 0.139 | Active | > 10 | > 100 | > 10 | Active | Active | 3.1 | Active | Active | inactive | Active
